For 89 compounds, melting point results are on record in a melting point compilation (Tetko et al.; mined from patent text by program, amines drawn as free bases though some values may be those of a salt).

Each structure is given as a SMILES string. Bounds are passed on as bounds.

With `CCN(CC)CCOc1ccc(Nc2ncc3c(n2)N(C)C(=O)N(C2CCCCC2)C3)cc1`, the melting point lay within 90 to 92 °C. Then `O=C(OCC1=CC(O)C2C=COC(OC3OC(CO)C(O)C(O)C3O)C12)c1ccc(O)cc1` (centres undefined), with 148 to 150 °C; and `Cc1onc(NS(=O)(=O)c2ccc([N+](=O)[O-])cc2)c1Br`, with 161 to 163 °C. In the case of `COc1cccc(OC)c1-c1ccccc1P(C1CCCCC1)C1CCCCC1`, the melting point was 163 to 165 °C. Turning to `COc1ccc(CN2C(=O)C(N)C(=O)N(CCC(C)C)c3ccccc32)cc1` (centres undefined), the melting point was in the range of 115 to 116 °C. The same measure for `CC1(C)CC(O)=CC2(C1)NCC(c1cccc(O)c1)O2` (centres undefined): 217 °C; for `OCCOCCNc1nc(-n2ccnc2)nc2ccc(CO)cc12`: 183 °C; for `Nc1scc2c1C(=O)c1c-2ccc(Cl)c1Cl`: 254 to 255 °C. In turn, `CCOC(=O)C1CN(CC)c2nc3cc(F)c(F)cc3cc2C1=O` (centres undefined) registered a melting point of 152 °C. The same measure for `COc1ccc(C)c(NC(=O)C(C)=Cc2ccccc2)c1`: 125 to 126 °C. Then `O=C1NC2(C(=O)O)CC3CC1C2C3` (centres undefined), with 298 to 300 °C; and `Cn1cc(C(O)c2cccc(Cl)c2)cc1C(=O)O` (centres undefined), with 180 °C. The same measure for `OC(CCCN1CC=C(c2ccc(Cl)cc2)CC1)c1ccc(Cc2ccc(Cl)cc2)cc1` (centres undefined): 104 to 105 °C; for `CC(C)CCc1c(-c2ccc(S(C)(=O)=O)cc2)cnn(-c2ccc(F)cc2)c1=O`: 151 to 154 °C.

`CC(C)Nc1cccnc1N1CCN(C(=O)c2ccc(C(=O)NCCOCCO)cc2)CC1` came in with a melting point of 116 °C. Then `CN(C)c1ccc(S(=O)(=O)n2c(CCCC(=O)O)cc3nc(Cl)ccc32)c(Cl)c1`, with 208 °C; and `CCc1c(C(=O)OC(C)C)ncc2[nH]c3ccc(NC(C)=S)cc3c12`, with 158 to 160 °C; and `COCC1=Nc2ccccc2C(=O)C1`, with 184 to 185 °C. The same measure for `CCOc1cccc(-n2nc(C)c3c(O)c(C(=O)c4ccccc4)cnc32)n1`: 160 to 162 °C. Then `CCOC(=O)c1cn(C)c2cnc3cc(F)c(N4CCN(c5cccc(OC)c5)C(C)C4)cc3c2c1=O` (centres undefined), with 226 °C.

As to `CCCCc1nn(-c2ccccc2Cl)c(=O)n1Cc1ccc(-c2ccccc2S(=O)(=O)NC(=O)c2ccc(F)cc2)cc1`, the melting point is 118 to 120 °C. The same measure for `COc1cc(-c2cc(-c3ccc(-c4c(Cc5ccccc5)sc5ccccc45)cc3)ccc2OCC(=O)O)cc(OC)c1OC`: 93 to 94 °C. The same measure for `CS(=O)(=O)N1CCCn2c(nc3c(N)nc4cccnc4c32)C1`: above 250 °C; for `CN(C)C=C(C(=O)C(=O)c1ccccc1C(=O)O)c1ccccc1`: 153 °C. In the case of `CCCOC(=O)C(C)NC(=O)C(CC(=O)O)NC(=O)C(C)N` (centres undefined), the melting point is 223 to 225 °C. As to `CNc1nc(-c2ccc(SC)cc2)n(-c2ccc(C)c(C)c2)c(=O)c1C#N`, the melting point is 199 to 205 °C.

`Cn1cccc1C=CC(=O)NCCCCCC(=O)NO`: the melting point was in the range of 103 to 105 °C. Regarding `CC(=O)OC1NC(=O)C2=C1CN=C(c1ccccc1Cl)c1cc(Cl)ccc12` (centres undefined), the melting point was 172 to 174 °C. Then `Clc1cccc(Nc2ncnc3[nH]c(-c4ccccc4)cc23)c1`, with 285 to 286 °C; and `O=c1cc(O)cc(CBr)o1`, with 77 to 78 °C; and `CN1CC(Cn2cccn2)CC2c3cccc4[nH]cc(c34)CC21` (centres undefined), with 192 to 194 °C. The same measure for `O=C1CCn2c(-c3ccccc3)nc3cc(Cl)cc1c32`: 234 to 235 °C; for `COc1ccc(C(=C(c2ccc(OC)cc2)C(F)(F)F)c2ccc(F)cc2)cc1`: 75 to 77 °C. Then `CCOc1ccc(CC2NCCc3cc(OC(C)C)c(OC(C)C)cc32)cc1OCC` (centres undefined), with 76 to 80 °C; and `CN(C)C1CCN2CCc3ccccc3C2(c2ccc(F)cc2)C1` (centres undefined), with 159 to 167 °C. On to `COc1ccc(CC(N(C)S(=O)(=O)c2ccc(C)cc2)C(C)(C)C(=O)Cl)cc1` (centres undefined), for which the melting point lay within 110 to 111 °C.

`CCOC(=O)c1cc(OCc2ccccc2)cc(OCc2ccccc2)c1` registered a melting point of 63 to 65 °C.

`O=C(c1cccs1)c1cc(Cc2ccccc2)c(O)c2ccccc12` showed a melting point of 150 to 152 °C. In the case of `COc1cc(CO)c(OC)c(C)c1C`, the melting point was 71 to 72 °C. The same measure for `OCc1cncn1-c1ccccc1`: 81 to 84 °C. Take `Cn1c(=O)n(CC(=O)N(CCO)c2ccccc2)c2cnc(-c3ccccc3)nc21`: the melting point is 231 to 233 °C.

Regarding `CCCc1ccc(C(=O)C(=O)OCC)[nH]1`, the melting point is 48 to 49 °C. Compound `CC(=O)Nc1nc2c(Oc3cc(-c4ccc5c(c4)OC(C)(C)C5)ncn3)cccc2s1` showed a melting point of 224 to 225 °C.

For the compound `Cc1[nH]n(C2CCCO2)c2nc(-c3ccncc3)nc(=O)c1-2` (centres undefined), the melting point was 268 to 269 °C. The same measure for `C/C(=C\c1ccc(OCC(=O)O)cc1)[N+](=O)[O-]`: 149 to 151 °C; for `CC(C)(C)OC(=O)Nc1cc(N2CCOCC2)c(I)cc1N`: 139 to 143 °C. Then `CNC(=O)C(S(=O)(=O)CCCl)S(=O)(=O)CCCl`, with 173 to 175 °C.

Take `O=C1c2cc3nn[nH]c(=O)c3cc2OC2CCCN12` (centres undefined): the melting point is 253 °C. In turn, `Cc1c(COc2cccc3cc(NS(=O)(=O)C(F)(F)F)ccc23)cccc1-c1ccccc1` returned a melting point of 124 to 125 °C. The same measure for `O=C1CCc2c(Oc3ccc([N+](=O)[O-])cn3)cccc21`: 119 to 123 °C; for `O=C(O)C(=Cc1c[nH]c2ncccc12)c1ccccc1`: above 230 °C; for `CC(C)C(=O)Nc1ccnc(-c2ccncc2)n1`: 215 to 217 °C. Then `Cc1oc(-c2ccccc2)nc1COc1ccc(COc2cccnc2CC#N)cc1`, with 138 to 139 °C; and `CCOC(=O)c1c(NCCCN(C)C)c2ccc(C)nc2n(CC)c1=O`, with 75 °C. The same measure for `O=C(/C=C/C=C/c1ccccc1)NCCCCC(=O)NO`: 168 to 170 °C; for `CCCCCC(CC(=O)Nc1cc(C(=O)NC(=O)C(C)C)ccc1C(C)(C)C)c1ccc(OC)cc1OC` (centres undefined): 157 to 159 °C; for `O=[N+]([O-])c1cccc2c(OS(=O)(=O)C(F)(F)F)ccnc12`: 108 °C. In the case of `O=c1cc(-c2ccccc2)n(-c2ccccc2Cl)c(-c2ccccc2)c1Cl`, the melting point was 230 to 233 °C. Then `OCC1OC(n2cnc3c(NN4CCCC4)nc(I)nc32)C(O)C1O` (centres undefined), with 216 to 217 °C; and `CCCCNC(=O)C(=O)[C@H](CC(C)C)NC(=O)[C@@H](NS(=O)(=O)c1ccc(F)cc1)C(C)C`, with 108 to 110 °C. Then `O=C(NCCO)c1cccc(-c2cccc3cc(Cc4ccc(OCC(F)(F)F)nc4)sc23)c1`, with 123 to 124 °C; and `CC(C)(C)c1cccc(S(=O)(=O)n2c(C(F)c3ccc(C(=O)O)cc3)cc3cc(C(F)(F)F)ccc32)c1` (centres undefined), with 170 °C. Then `COc1cc2cc(C(=O)O)[nH]c2cc1OCCCl`, with 187 to 189 °C; and `CCc1c(CC(=O)O)ccc(OC)c1OC`, with 89 to 90 °C; and `CCCCCCCCCCCCCOc1ccc(CNc2ccc(C(=O)OCC)cc2)cc1`, with 95 to 105 °C. Turning to `CC(=O)Nc1nc(CCc2ccc(CN3CCN(C(=O)OC(C)(C)C)CC3)cc2)cs1`, the melting point lay in the range of 140 to 141 °C. Then `CC(C)OC(=O)Cn1c(-c2ccc(Cl)cc2)nc2cccnc21`, with 118 to 120 °C; and `O=[N+]([O-])c1ccc(-c2oncc2CO)cc1`, with 170 to 171 °C; and `Cc1[nH]cnc1CSCCN=CNC#N`, with 168 to 170 °C. The same measure for `CCOC(=O)CNC(=O)C=C(c1ccc(Cl)cc1)c1ccc(Cl)cc1`: 123 to 124 °C. Then `COc1ccc(N2CCC(=O)C2)cc1`, with 104 to 105 °C; and `O=C(O)CCCNC(=O)c1ccccc1NC(=O)c1cc([N+](=O)[O-])ccc1O`, with 239 to 241 °C; and `CCSc1cc(C=NO)c(Cl)cn1`, with 128 to 130 °C.

`O=Cc1cc2ccsc2c2ccccc12` yielded a melting point of 96 to 96.5 °C.

As for `Cc1ccc(NC(=O)OC2CCCCC2)cc1NC(=O)OC1CCCCC1`, the melting point was determined as 156 °C.

`CCOC(=O)c1cc2ccc(-c3ccc(C)cc3)cc2n1C` displayed a melting point of 98 to 99 °C. The same measure for `O=C(O)c1cn(-c2ccc(F)cc2F)c2c(F)c(N3Cc4ccccc4C3)c(F)cc2c1=O`: 264 to 268 °C; for `Cc1ccc2nc(CO)cc(Cl)c2c1`: 147 to 148 °C. The same measure for `N#Cc1c(N2CCc3ccccc3CC2)nc2n(c1=O)CCN2`: above 200 °C; for `CC(C)c1cccc(C(C)C)c1NC(=O)C(Cc1ccc(OCc2ccccc2)cc1)NCc1ccccc1` (centres undefined): 127 to 129 °C; for `CC(C)Oc1cc(-n2c(=O)cc(C(F)(F)F)n(C)c2=O)c(F)cc1Cl`: 90 to 93 °C.

Turning to `COc1cc2c(c(Cl)c1Cl)C(=O)C(C)(C)C2c1ccccc1` (centres undefined), the melting point fell in the range of 146 to 148 °C. The same measure for `COc1ccc(S(=O)C(C(=O)NO)c2ccccc2)cc1` (centres undefined): 135 °C; for `COC(C)(C)C(=O)O[C@H]1C[C@H](O)C=C2C=C[C@H](C)[C@H](CC[C@@H]3C[C@@H](O)CC(=O)O3)[C@H]21`: 150 to 152 °C. The same measure for `Nc1cc(N2C(=O)CN(CCCF)C2=O)c(F)cc1Cl`: 89 to 91 °C; for `C[C@@H](Oc1cccc(F)c1N)[C@H](NC(=O)OC(C)(C)C)C(=O)O`: 158 to 160 °C.

Compound `Cc1cc(F)ccc1-c1nc(-c2cn(N)c(=O)[nH]c2=O)nc2c1ccc(=O)n2-c1c(F)cccc1F` gave a melting point above 300 °C. The same measure for `CC(=O)NC1(c2ccc(CN3CCN(c4nccs4)CC3)cc2)CC1`: 184 to 185 °C. In the case of `COc1cc(Cl)ccc1-c1ccc(C(C)=O)cc1[N+](=O)[O-]`, the melting point was in the range of 104 to 106 °C.

By melting point is commonly meant the temperature of the solid-liquid transition.
